# Assay results as given in publication PMC4412257, “2′,6′-Dimethylphenylalanine: A Useful Aromatic Amino Acid Surrogate for Tyr or Phe Residue in Opioid Peptides” (International Journal of Medicinal Chemistry, 2012).
# Read-outs that look alike come from different tables or passages of the source.
# Key:
# mice = tested on: mice; parameters: method as in PMID 12657261; conditions: formalin test in mice, subcutaneous injection, cited from earlier work
# κ-opioid receptor = molecular target: κ-opioid receptor; parameters: method as in PMID 16321540; conditions: guinea pig brain homogenate; read-out: IC50 ± SEM, opioid receptor, [3H]U-69593 (κ); cited from earlier work
# μ-opioid receptor [1] = conditions: cited from earlier work; for Ki: versus [3H]DAMGO, read-out: Receptor binding affinity, Ki ± S.E., μ
# δ-opioid receptor [2] = conditions: cited from earlier work; for Ki: versus [3H]DT, read-out: Receptor binding affinity, Ki ± S.E., δ
# [3] = molecular target: MVD (δ): mouse vas deferens, δ-receptors; conditions: cited from earlier work; for Ke of CTAP against the peptide, MVD: antagonist CTAP (μ); for Ke of CTAP against the peptide, MVD / Ke of N,N(Me)2Dmt-Tic-OH against the peptide, MVD: MVD assay; for Ke of N,N(Me)2Dmt-Tic-OH against the peptide, MVD: antagonist N,N(Me)2Dmt-Tic-OH (δ)
# δ-opioid receptor [4] = assay: δ-opioid receptor binding, brain homogenate, versus [3H]DT; parameters: species or system rat; conditions: ratio of Ki values
# Method: The receptor-binding affinities of synthetic analogs were determined using rat brain, as previously reported [45].
# [5] = tested on: MVD (δ): mouse vas deferens, δ-receptors; assay: isolated mouse vas deferens (MVD) assay; type: cell-based; conditions: Table 1; ratio of IC50 values
# Method: (§1) The receptor-binding affinities of synthetic analogs were determined using rat brain, as previously reported. […] The GPI tissue contains predominantly μ-receptors, while MVD tissue contains δ-receptors. […] In contrast, 11 was devoid of activity in both assays, as expected from the binding data. […] This analog turned out to be a potent μ-antagonist and a weak δ-antagonist. […] The results of 13 are in line with observations that Dmt-D-Phe-NH2 and its C-terminally extended analog are μ-receptor antagonists.
# [6] = tested on: GPI (μ): guinea pig ileum, predominantly μ-receptors; conditions: cited from earlier work
# μ-opioid receptor [7] = assay: μ-opioid receptor binding, brain homogenate, versus [3H]DAMGO; parameters: species or system rat; conditions: ratio of Ki values
# Method: as §1
# Two methyl groups on Dmp^4 may interfere with the receptor interaction due to a reduction in conformational flexibility and/or enhanced lipophilicity. To further examine the usefulness of Dmp-containing DYN peptides as κ-opioid receptor ligands, the in vitro bioactivity of DYN peptides was determined using the GPI assay (Table 5).
# [8] = tested on: GPI (μ): guinea pig ileum, predominantly μ-receptors; assay: isolated guinea pig ileum (GPI) assay; type: cell-based; conditions: ratio of IC50 values
# Method: as §1
molecule,measurement,setting,value
"CN1CC[C@]23c4c5ccc(O)c4O[C@H]2[C@@H](O)C=C[C@H]3[C@H]1C5 [Morphine, reference compound]","ED50, First phase",mice; first phase,3811 nmol/kg
same,"ED50, Second phase",mice; second phase,7319 nmol/kg
"Phe-Gly-Gly-Phe-Thr-Gly-Ala-Arg-Lys-Ser-Ala-Arg-Lys-Leu-Ala-Asn-Gln [NOC, reference compound]",IC50,κ-opioid receptor,643 ± 218 nM
same,IC50,"μ-opioid receptor [1]; rat brain homogenate, read-out: IC50 ± SEM, opioid receptor, [3H]DAMGO (μ)",1540 ± 601 nM
same,IC50,"δ-opioid receptor [2]; rat brain homogenate, read-out: IC50 ± SEM, opioid receptor, [3H]DT (δ)",> 10 µM
"Tyr-D-Ala-Phe-Glu-Val-Val-Gly-NH2 [DT, reference compound]",IC50,[3]; Table 1,0.582 ± 0.029 nM
same,IC50,[3]; Table 6,0.582 ± 0.029 nM
same,"Ke of CTAP against the peptide, MVD",[3],>1000 nM
same,"Ke of N,N(Me)2Dmt-Tic-OH against the peptide, MVD",[3],0.64 nM
same,μ/δ,δ-opioid receptor [4]; Table 1,13894
same,GPI/MVD,[5],9342
same,IC50,[6]; Table 1,5440 ± 812 nM
same,IC50,[6]; Table 6,5440 ± 812 nM
same,Ki,"μ-opioid receptor [1]; Table 1, rat brain",314 ± 53 nM
same,Ki,μ-opioid receptor [1]; Table 6,314 ± 53 nM
same,Ki,"δ-opioid receptor [2]; Table 1, rat brain",0.0226 ± 0.0077 nM
same,Ki,δ-opioid receptor [2]; Table 6,0.0226 ± 0.0077 nM
"Tyr-D-Ala-Phe-Gly-Tyr-Pro-Ser-NH2 [DM, reference compound]",IC50,[3]; Table 1,34.4 ± 4.8 nM
same,δ/μ,μ-opioid receptor [7]; Table 1,2087
same,IC50,[6]; Table 1,3.74 ± 0.57 nM
same,Ki,"μ-opioid receptor [1]; Table 1, rat brain",0.092 ± 0.024 nM
same,Ki,"δ-opioid receptor [2]; Table 1, rat brain",192 ± 51 nM
same,MVD/GPI,[8]; Table 1,9.2
"Tyr-Gly-Gly-Phe-Leu [ENK, reference compound]",IC50,[3]; Table 1,22.2 ± 4.3 nM
same,IC50,[3]; Table 6,22.2 ± 4.3 nM
same,IC50,[6]; Table 1,103 ± 30 nM
same,IC50,[6]; Table 6,103 ± 30 nM
[D-Dmp^1]EM2 [compound 39],IC50,[3]; Table 6,2330 ± 943 nM
same,δ/μ,μ-opioid receptor [7]; Table 6,241
same,IC50,[6]; Table 6,1390 ± 221 nM
same,Ki,μ-opioid receptor [1]; Table 6,40.4 ± 2.6 nM
same,Ki,δ-opioid receptor [2]; Table 6,9710 ± 3820 nM
[D-Dmp^1]YRFB [compound 41],IC50,[3]; Table 6,1470 ± 283 nM
same,δ/μ,μ-opioid receptor [7]; Table 6,>370
same,IC50,[6]; Table 6,320 ± 30 nM
same,Ki,μ-opioid receptor [1]; Table 6,7.62 ± 1.75 nM
same,Ki,δ-opioid receptor [2]; Table 6,> 2820 nM
same,MVD/GPI,[8]; Table 6,4.6
[D-Dmp^3]DM [compound 19],IC50,[3]; Table 1,358 ± 45 nM
same,δ/μ,μ-opioid receptor [7]; Table 1,745
same,IC50,[6]; Table 1,44.4 ± 6.1 nM
same,Ki,"μ-opioid receptor [1]; Table 1, rat brain",4.43 ± 1.85 nM
same,Ki,"δ-opioid receptor [2]; Table 1, rat brain",3300 ± 702 nM
same,MVD/GPI,[8]; Table 1,8.1
[D-Dmp^3]DT [compound 21],IC50,[3]; Table 1,145 ± 15 nM
same,μ/δ,δ-opioid receptor [4]; Table 1,18
same,GPI/MVD,[5],56
same,IC50,[6]; Table 1,8210 ± 872 nM
same,Ki,"μ-opioid receptor [1]; Table 1, rat brain",1960 ± 177 nM
same,Ki,"δ-opioid receptor [2]; Table 1, rat brain",111 ± 17 nM
[D-Dmp^3]EM2 [compound 15],IC50,[3]; Table 1,187 ± 30 nM
same,δ/μ,μ-opioid receptor [7]; Table 1,1737
same,IC50,[6]; Table 1,30.4 ± 2.8 nM
same,Ki,"μ-opioid receptor [1]; Table 1, rat brain",2.4 ± 0.56 nM
same,Ki,"δ-opioid receptor [2]; Table 1, rat brain",4170 ± 954 nM
same,MVD/GPI,[8]; Table 1,6.15
[D-Dmp^3]YRFB [compound 23],IC50,[3]; Table 1,305 ± 53 nM
same,δ/μ,μ-opioid receptor [7]; Table 1,>45679
same,IC50,[6]; Table 1,19.8 ± 1.9 nM
same,Ki,"μ-opioid receptor [1]; Table 1, rat brain",0.0618 ± 0.0109 nM
same,Ki,"δ-opioid receptor [2]; Table 1, rat brain",> 2820 nM
same,MVD/GPI,[8]; Table 1,15.4
[D-Dmp^4]EM2 [compound 17],IC50,[3]; Table 1,2270 ± 603 nM
same,δ/μ,μ-opioid receptor [7]; Table 1,17
same,IC50,[6]; Table 1,587 ± 119 nM
same,Ki,"μ-opioid receptor [1]; Table 1, rat brain",106 ± 20 nM
same,Ki,"δ-opioid receptor [2]; Table 1, rat brain",1760 ± 834 nM
same,MVD/GPI,[8]; Table 1,3.86
[D-Dmp^4]ENK [compound 11],IC50,[3]; Table 1,> 10000 nM
same,μ/δ,δ-opioid receptor [4]; Table 1,0.28
same,IC50,[6]; Table 1,> 10000 nM
same,Ki,"μ-opioid receptor [1]; Table 1, rat brain",2500 ± 169 nM
same,Ki,"δ-opioid receptor [2]; Table 1, rat brain",8920 ± 4100 nM
[D-Dmp^l]DT [compound 35],IC50,[3]; Table 6,662 ± 147 nM
same,IC50,[6]; Table 6,> 10000 nM
same,Ki,μ-opioid receptor [1]; Table 6,> 2180 nM
same,Ki,δ-opioid receptor [2]; Table 6,1390 ± 495 nM
"[Dmp^1,3]YRFB [compound 25]","Ke of CTAP against the peptide, MVD",[3],10.2 nM
same,"Ke of N,N(Me)2Dmt-Tic-OH against the peptide, MVD",[3],>1000 nM
same,δ/μ,μ-opioid receptor [7]; Table 6,78148
same,IC50,[6]; Table 6,2.76 ± 0.56 nM
same,"Ke of CTAP against the peptide, GPI","[6]; antagonist CTAP (μ), GPI assay",21.3 nM
same,Ki,μ-opioid receptor [1]; Table 6,0.0216 ± 0.0062 nM
same,Ki,δ-opioid receptor [2]; Table 6,1690 ± 458 nM
same,MVD/GPI,[8]; Table 6,18.2
[Dmp^1]DT [compound 34],IC50,[3]; Table 6,0.272 ± 0.054 nM
same,μ/δ,δ-opioid receptor [4]; Table 6,475
same,IC50,[6]; Table 6,4040 ± 1120 nM
same,Ki,μ-opioid receptor [1]; Table 6,156 ± 33 nM
same,Ki,δ-opioid receptor [2]; Table 6,0.329 ± 0.077 nM
[Dmp^1]EM2 [compound 38],IC50,[3]; Table 6,661 ± 316 nM
same,δ/μ,μ-opioid receptor [7]; Table 6,2727
same,IC50,[6]; Table 6,76.9 ± 20.7 nM
same,Ki,μ-opioid receptor [1]; Table 6,2.48 ± 1.46 nM
same,Ki,δ-opioid receptor [2]; Table 6,6760 ± 590 nM
same,MVD/GPI,[8]; Table 6,8.61
